# Source: patent US20250248398A1, “TICK REPELLENT” (priority 2024, published 2025)
# Columns and labels:
# [1] = tested on: I. scapularis tick; assay: two-choice still-air Pyrex glass olfactometer, 20 hours, natural and synthetic ant metabolites; parameters: species or system Ixodes scapularis; conditions: in vivo
# Experimental: Treatment and control stimuli were assigned to the two lateral chambers, alternating the position of stimuli between replicates to account for potential side bias. Both lateral chambers were also fitted with a wet cotton ball (Thermo Fisher Scientific, MA, U.S.A.) to ensure sufficiently high humidity.
# To initiate an experimental replicate, a single I. scapularis tick was introduced into the central chamber, briefly exposed to human exhale to stimulate movement, and then allowed 20 hours to respond. A tick was considered a responder if it was found in a lateral chamber or in a connecting glass tube closer to a lateral chamber than the central chamber, as shown in FIG. 2. To prevent tick escape, all three chambers of the olfactometer were sealed with Parafilm (Bemis, WI, U.S.A.) for the duration (i.e., 20 hours) of the experiment.
# To minimize the potential for tick escape, and to prevent ticks from sensing cues (e.g., convective heat, infrared radiation, CO2) originating from experimentalists that initiated or scored experiments, olfactometers (n=10-15) were housed in a plexiglass box (112 cm×24 cm×14 cm). Experiments were run under a 14:10 light/dark cycle, thus enabling ticks to respond to test stimuli while maintaining a circadian rhythm. […]
# [2] = tested on: Ixodes scapularis; assay: two-choice still-air olfactometer (3D-printed), 30 minutes, synthetic fungal metabolites; format: in vivo; conditions: female I. scapularis
# Experimental: All behavioral responses of ticks to experimental substrates were tested in two-choice still-air olfactometers (150 mm×50 mm×17 mm; FIGS. 1a, 1b, 1c). […] Each olfactometer had three inset circular chambers (with an inner diameter of 28 mm) interconnected with inset linear paths (24 mm×10 mm×7 mm).
# Treatment and control test stimuli were assigned to lateral chambers, alternating the position of stimuli between replicates to account for potential side bias. To initiate an experimental replicate, a single tick was introduced into the central chamber, briefly exposed to human exhale to stimulate movement, and then allowed 30 minutes to respond. […] Olfactometers were sealed with parafilm and a rectangular lid (150 mm×50 mm×3 mm).
# A tick was considered a responder if it was found in a lateral chamber after 30 minutes. After each experiment, olfactometers were cleaned with 70% ethanol and hexane. At the end of each experimental day, olfactometers were washed with Sparkleen (Thermo Fisher Scientific, MA, U.S.A), rinsed with distilled water, and air-dried.
# Similarly, geosmin dissolved in 25 μL of methanol was applied at doses of 1.0 ng (Exp. 4), 0.1 ng (Exp. 5), and 0.01 ng (Exp. 6), using 25 μL of methanol as the control stimulus. In each experimental replicate, methanol was allowed 5 minutes to evaporate before a tick was introduced into the central olfactometer chamber.
# In each experiment, a watch glass (28 mm diameter) fitted with a congruent piece of filter paper was placed in lateral olfactometer chambers, as shown in FIG. 1. In experiment 7, 1 ng of 2-MIB was dissolved in 25 μL of methanol and applied to the treatment filter paper, and 25 μL of methanol was applied to the corresponding control filter paper. In experiment 8, 1 ng of L-borneol and 1 ng of D-borneol were each dissolved in 25 μL of methanol and applied to the treatment filter paper, and 50 μL of methanol was applied to the control filter paper. In each experimental replicate, methanol was allowed 5 minutes to evaporate before a tick was introduced into the central olfactometer chamber.
# In each experimental replicate, methanol was allowed 5 minutes to evaporate before a tick was introduced into the central olfactometer chamber.
# [3] = tested on: American dog ticks, Dermacentor variabilis; assay: two-choice still-air olfactometer (3D-printed), 30 minutes; format: in vivo; conditions: female D. variabilis, 1 ng in 25 μL methanol
# Experimental: (§1) All behavioral responses of ticks to experimental substrates were tested in two-choice still-air olfactometers (150 mm×50 mm×17 mm; FIGS. 1a, 1b, 1c). Still-air, instead of moving-air, olfactometers were used because off-host ticks encounter fungi in soil microhabitats such as leaf litter where there is typically little, if any, air movement. Each olfactometer had three inset circular chambers (with an inner diameter of 28 mm) interconnected with inset linear paths (24 mm×10 mm×7 mm).
# (§2) Olfactometers were modeled and 3D-printed using Autodesk Fusion 360 (Version 13.2.0.9150), Creality Slicer (Version 4.8.2), and an Ender-3 Pro 3D printer (Creality, Shengzhen, China). Olfactometers were printed using translucent 1.75 mm (±0.03 mm dimensional accuracy) polylactic acid (PLA) filament ([…], OH, U.S.A.). To reduce the porosity of 3D-printed olfactometers, XTC-3D brush-on epoxy coating was applied (Smooth-On Inc., PA, U.S.A.).
# (§3) Treatment and control test stimuli were assigned to lateral chambers, alternating the position of stimuli between replicates to account for potential side bias. To initiate an experimental replicate, a single tick was introduced into the central chamber, briefly exposed to human exhale to stimulate movement, and then allowed 30 minutes to respond. […]
# [4] = tested on: lone star ticks, Amblyomma americanum; assay: as above; format: in vivo; conditions: female A. americanum, 1 ng in 25 μL methanol
# Experimental: as §1, §2, §3
# [5] = dose 1 ng in 25 μL methanol on filter paper
Compound,deterrence of ticks (treatment vs DCM control) [1],deterrence of ticks (treatment vs methanol control) ([2]; dose 0.01 ng in 25 μL methanol),deterrence of ticks (treatment vs methanol control) ([2]; dose 0.1 ng in 25 μL methanol),"deterrence of ticks (treatment vs methanol control) [2, 5]",deterrence of ticks (treatment vs methanol control) [3],deterrence of ticks (treatment vs methanol control) [4]
O=CO [formic acid],deterred neither,,,,,
"CC1CCCC2(C)CCCCC12O (stereo not drawn) [geosmin, reference compound]",,not deterred,not deterred,not deterred,,
"CC1(C)[C@@H]2CC[C@@]1(C)[C@](C)(O)C2 [2-MIB, 2-methylisoborneol]",,not deterred,moderately deterred,strongly deterred,deterred,deterred
